Earlier results, collected in patent US7829698B2, “Nano-particles comprising cucurbituril derivatives, pharmaceutical composition containing the same, and process for the preparation thereof” (Postech Foundation, priority 2003, dated 2010).
Peptide text beside a SMILES is read from it.

Conditions: host cucurbituril

SMILES | Kf (non-covalent coupling constant between cucurbituril and guest molecule) [M⁻¹]
CCCCCN [Me(CH2)4NH2] | 24000
N#CCCN [H2N(CH2)2CN] | 440
N[C@@H](Cc1ccccc1)C(=O)O [Phe] | 1400
CC(C)C[C@H](N)C(=O)NCC(=O)O [Leu-gly] (H-Leu-Gly-OH) | 370
CC(C)[C@H](N)C(=O)O [L-Val] | 1400
NCCCCCO [H2N(CH2)5OH] | 690
C[C@H](N)C(=O)O [L-Ala] | 1000
NCCC(=O)O [H2N(CH2)2COOH] | 2300
N[C@@H](Cc1ccccc1)C(=O)NCC(=O)O [Phe-gly] (H-Phe-Gly-OH) | 1100
CC(C)[C@H](NC(=O)CN)C(=O)O [Gly-val] (H-Gly-Val-OH) | 1500
CCC(=O)O [CH3CH2COOH] | 590
NCCCCCCN [NH2(CH2)6NH2] | 2.7e+06
